According to US20030073740A1, “Methods for treatment of lupus erythematosus” (priority 2001, published 2003):
Where two headings read alike, the source gives them in different places.

Legend:
[1] = biological target: T1, GST-cGB-PDE5 fusion protein (cGMP binding sites of human PDE5A) (Homo sapiens, UniProt O76074); assay: cGMP binding assay with GST-cGB-PDE5 fusion protein; conditions: for competition with cGMP binding to GST-cGB-PDE5 at high concentration: 100 μM compound, cGMP 2 μM
T1 construct: made in house; host or cells: E. coli BL21 (DE3)
T1 sequence (O76074 46-539 limits assumed): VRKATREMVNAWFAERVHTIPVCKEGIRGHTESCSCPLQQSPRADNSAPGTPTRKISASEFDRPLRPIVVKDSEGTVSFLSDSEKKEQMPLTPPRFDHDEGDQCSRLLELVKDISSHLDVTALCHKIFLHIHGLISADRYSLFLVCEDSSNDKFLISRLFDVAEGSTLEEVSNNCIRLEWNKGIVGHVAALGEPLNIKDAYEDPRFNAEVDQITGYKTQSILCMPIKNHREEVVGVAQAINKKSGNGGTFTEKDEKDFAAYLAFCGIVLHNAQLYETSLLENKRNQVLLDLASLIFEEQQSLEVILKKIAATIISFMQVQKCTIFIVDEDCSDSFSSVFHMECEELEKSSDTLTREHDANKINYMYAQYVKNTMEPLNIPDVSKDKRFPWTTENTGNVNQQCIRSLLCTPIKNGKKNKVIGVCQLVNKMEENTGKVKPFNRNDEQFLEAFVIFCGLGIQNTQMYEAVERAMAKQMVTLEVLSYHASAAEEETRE
Source text: RT-PCR method is used to obtain the cGB domain of PDE5 with forward and reverse primers designed from bovine PDE5A cDNA sequence (McAllister-Lucas L. M. et al, J. Biol. Chem. 268, 22863-22873, 1993) and the selection among PDE 1-10 families. 5′-3′, Inc. kits for total RNA followed by oligo (dT) column purification of mRNA are used with HT-29 cells. […] It is then cloned into pGEX-5X-3 glutathione-S-transferase (GST) fusion vector (Pharmacia Biotech )with tac promoter, and EcoR1 and XhoI cut sites. The fusion vector is then transfected into E. Coli BL21 (DE3) bacteria (Invitrogen). The transfected BL21 bacteria is grown to log phase, and then IPTG is added as an inducer. The induction is carried at 20° C. for 24 hrs. The bacteria are harvested and lysed. The soluble cell lysate is incubated with GSH conjugated Sepharose 4B (GSH-Sepharose 4B). The GST-cGB-PDE5 fusion protein can bind to the GSH-Sepharose beads, and the other proteins are washed off from beads with excessive cold PBS.
Then, the mixture is transferred to Brandel MB-24 cell harvester with GF/B as the filter membrane followed by 2 washes with 10 mL of cold 5 mM potassium buffer(pH 6.8). The membranes are then cut out and transferred to scintillation vials followed by the addition of 1 mL of H2O and 6 mL of Ready Safe™ liquid scintillation cocktail to each vial. The vials are counted on a Beckman LS 6500 scintillation counter.
The quenching by filter membrane or other debris are also calibrated.

[2] = biological target: T2, COX I (purified cyclooxygenase Type I) (Ovis aries, UniProt P05979); assay: Cyclooxygenase (COX) inhibition, purified COX; assay type: biochemical, ram; conditions: arachidonic acid 100 μM, 2.0 min, 37° C.
T2 construct: The COX was purified from ram seminal vesicles; from tissue; host or cells: ram seminal vesicles
T2 sequence (P05979 25-600): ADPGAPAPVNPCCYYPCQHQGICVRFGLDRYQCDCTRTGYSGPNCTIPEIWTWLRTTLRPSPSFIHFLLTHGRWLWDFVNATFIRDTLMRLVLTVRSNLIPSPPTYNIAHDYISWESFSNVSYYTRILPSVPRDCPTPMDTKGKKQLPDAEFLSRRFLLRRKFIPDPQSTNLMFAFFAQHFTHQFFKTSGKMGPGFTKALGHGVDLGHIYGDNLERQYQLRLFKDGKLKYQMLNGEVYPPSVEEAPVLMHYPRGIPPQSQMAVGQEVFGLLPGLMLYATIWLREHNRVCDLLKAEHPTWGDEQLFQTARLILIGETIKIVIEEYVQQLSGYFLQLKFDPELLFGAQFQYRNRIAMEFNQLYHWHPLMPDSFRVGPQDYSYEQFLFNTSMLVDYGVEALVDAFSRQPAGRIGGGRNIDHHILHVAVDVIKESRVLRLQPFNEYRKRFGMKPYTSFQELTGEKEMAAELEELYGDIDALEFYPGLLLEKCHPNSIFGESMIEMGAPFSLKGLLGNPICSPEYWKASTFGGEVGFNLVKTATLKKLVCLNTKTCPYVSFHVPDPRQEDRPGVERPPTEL
Protocol: COX catalyzes the formation of prostaglandins and thromboxane by the oxidative metabolism of arachidonic acid. The compound of Example 1 of this invention, as well as a positive control, (sulindac sulfide) were evaluated to determine whether they inhibited purified cyclooxygenase Type I (see Table 1 below).
The compounds of this invention were evaluated for inhibitory effects on purified COX. The COX was purified from ram seminal vesicles, as described by Boopathy, R. and Balasubramanian, J., 239:371-377, 1988. COX activity was assayed as described by Evans, A. T., et al., “Actions of Cannabis Constituents on Enzymes Of Arachidonate Metabolism Anti-Inflammatory Potential,” Biochem. Pharmacol., 36:2035-2037, 1987. Briefly, purified COX was incubated with arachidonic acid (100 μM) for 2.0 min at 37° C. in the presence or absence of test compounds. The assay was terminated by the addition of TCA, and COX activity was determined by absorbance at 530 nm.

native bovine PDE5 = native bovine PDE5 (Bos taurus, UniProt Q28156); conditions: read-out: Kd of cGMP binding, native bovine PDE5; cited from earlier work
U937 cells = assay: apoptosis induction of U937 cells (active caspase 3 immunofluorescence); assay type: cell-based; conditions: U937 cells, 24 hours
Protocol: U937 cells (from ATCC Rockville, Md.) were grown in RPMI media supplemented with 5% FCS, glutamine, antibiotic/antimycotic and sodium pyruvate. Total RNA was isolated from two U937 cultures, one treated with 5 nM TPA for 48 hours and one grown in normal media as listed above, using the Rouche High Pure RNA Isolation Kit (cat# 1 828 665) as per manufacturers protocol. cDNA was then synthesized from the total RNA using GibcoBRL SuperscriptII (Cat # 18064-022) reverse transcriptase as per manufacturers protocol. The resulting cDNA was used as a template for RT-PCR reactions using primer sets specific for PDE2 (forward: […], reverse: […]) or PDE5 (forward: […], reverse: […]). mRNA for PDE2 and 5 were both present in the untreated U937 cells. Upon treatment with TPA, the relative amounts of PDE2 mRNA increased 5 fold. Therefore, U937 cells treated with TPA and driven to differentiate into an activated macrophage like state have elevated levels of PDE2 mRNA (see FIG. 1).
The presence of PDE2 and PDE5 protein within U937 cells was confirmed by indirect immunofluorescence (IIF). U937 cells were cultured as above. Two U937 cultures, one grown in the presence of 5 nM TPA for 48 hours and one grown in normal media were processed. All cultures were collected by centrifugation (Shandon Cytospin, 2 minutes @ 600 rpm) onto poly-L lysine-coated slides and immediately fixed in fresh 3% paraformaldehyde buffered in PBS for 10 minutes. Adherent cultures were grown on coverslips and fixed as above. Cells were permeablized in 0.2% triton-100 for 2 minutes. Slides were blocked with blocking buffer (5% goat serum, 5% glycerol, 1% gelatin from cold water fish skin and 0.04% NaN3 in PBS) for 1 hour at room temperature.
Adherent cells were dislodged by treatment with trypsin EDTA for 5 minutes at 37° C. Cells were then processed for IIF as described above, except that an antibody specific for active caspase 3 was used (as per manufacturer's protocol) instead of antibodies to PDE2 or 5 (Promega Cat. #G7481). The anti-active caspase 3 antibody was diluted 1:200 in blocking buffer and processed according to the manufacturer's protocol. The resulting slides were observed under a fluorescent microscope and a digital images were obtained.
The level of apoptosis in U937 cells was quantified by scoring 500 consecutive cells for the presence of active caspase 3.
The cells were harvested and processed for IIF as described above using an antibody that specifically recognizes active caspase 3. […] Therefore, the inhibition of only PDE4 or PDE5 alone (i.e. without the inhibition of PDE2) is not sufficient to induce apoptosis in U937 cells.

CCCCOC1C2OP(=O)(O)OCC2OC1n1cnc2c(N)ncnc21 (stereo not drawn) [2′-O-butyl-cAMP]
competition with cGMP in binding to the cGMP binding sites of GST-cGB-PDE5 ([1]; 3H-cGMP 2 μM): did not compete

CCCCOC1C2OP(=O)(O)OCC2OC1n1cnc2c(=O)[nH]c(N)nc21 (stereo not drawn) [2′-O-butyl-cGMP]
competition with cGMP in binding to the cGMP binding sites of GST-cGB-PDE5 ([1]; 3H-cGMP 2 μM): did not compete

Nc1ncnc2c1ncn2[C@@H]1O[C@@H]2COP(=O)(O)O[C@H]2[C@H]1O [Cyclic AMP]
competition with cGMP in binding to the cGMP binding sites of GST-cGB-PDE5 [1]: did not compete

O=c1[nH]cnc2c1ncn2[C@@H]1O[C@@H]2COP(=O)(O)O[C@H]2[C@H]1O [Cyclic IMP]
competition with cGMP binding to GST-cGB-PDE5 at high concentration [1]: partially compete

CC1=C(CC(=O)NCc2ccccc2)c2cc(F)ccc2/C1=C\c1ccncc1 [Example 1, (Z)-5-Fluoro-2-Methyl-(4-Pyridinylidene)-3-(N-Benzyl)-Indenylacetamide]
inhibition at 100 µM [2]: < 25%

Nc1nc2c(nc(Br)n2[C@@H]2O[C@@H]3COP(=O)(O)O[C@H]3[C@H]2O)c(=O)[nH]1 [Example 8-bromo-cGMP, 8-bromo-cGMP]
competition with cGMP binding to GST-cGB-PDE5 at high concentration [1]: partially compete

O=C(O)C1CCN(c2nc(NCc3ccc4c(c3)OCO4)c3cc(Cl)ccc3n2)CC1 [Example E4021]
competition with cGMP in binding to the cGMP binding sites of GST-cGB-PDE5 ([1]; 3H-cGMP 2 μM): None of the PDE5 inhibitors showed any competition

CSc1ccc(/C=C2/C(C)=C(CC(=O)O)c3cc(F)ccc32)cc1 [Sulindac sulfide, sulindac sulfide, reference compound]
competition with cGMP in binding to the cGMP binding sites of GST-cGB-PDE5 ([1]; 3H-cGMP 2 μM): None of the PDE5 inhibitors showed any competition
inhibition at 100 µM [2]: 86%

Nc1ccn([C@@H]2O[C@@H]3COP(=O)(O)O[C@H]3[C@H]2O)c(=O)n1 [cCMP, cyclic CMP]
competition with cGMP in binding to the cGMP binding sites of GST-cGB-PDE5 ([1]; 3H-cGMP 2 μM): did not compete

Nc1nc2c(ncn2[C@@H]2O[C@@H]3COP(=O)(O)O[C@H]3[C@H]2O)c(=O)[nH]1 [cGMP, cyclic 3′,5′-guanosine monophosphate]
competition with cGMP in binding to the cGMP binding sites of GST-cGB-PDE5 ([1]; 3H-cGMP 2 μM): specifically bound
Kd ([1]; read-out: Kd of cGMP binding to GST-cGB-PDE5 fusion protein, two cGMP binding sites): 1600 ± 200 nM
Kd (native bovine PDE5): 1300 nM

O=c1ccn([C@@H]2O[C@@H]3COP(=O)(O)O[C@H]3[C@H]2O)c(=O)[nH]1 [cUMP, cyclic UMP]
competition with cGMP in binding to the cGMP binding sites of GST-cGB-PDE5 ([1]; 3H-cGMP 2 μM): did not compete

CC1=C(CC(=O)O)c2cc(F)ccc2/C1=C\c1ccc(S(C)(=O)=O)cc1 [exisulind]
competition with cGMP in binding to the cGMP binding sites of GST-cGB-PDE5 ([1]; 3H-cGMP 2 μM): None of the PDE5 inhibitors showed any competition

COc1ccc(C2CNC(=O)C2)cc1OC1CCCC1 (stereo not drawn) [rolipram, reference compound]
levels of apoptosis compared to normal background (active caspase 3) (U937 cells; 0.5 uM): No increase in the levels of apoptosis

CCCc1nn(C)c2c(=O)[nH]c(-c3cc(S(=O)(=O)N4CCN(C)CC4)ccc3OCC)nc12 [sildenafil, reference compound]
levels of apoptosis compared to normal background (active caspase 3) (U937 cells; 0.3 nM): No increase in the levels of apoptosis

CCCOc1ccccc1-c1nc2nn[nH]c2c(=O)[nH]1 [zaprinast]
competition with cGMP in binding to the cGMP binding sites of GST-cGB-PDE5 ([1]; 3H-cGMP 2 μM): None of the PDE5 inhibitors showed any competition
